In article PMC5679629, “Flavin-containing monooxygenase 3 (FMO3) role in busulphan metabolic pathway” (PLoS ONE, 2017):

Key:
[1] = parameters: method as in PMID 2886318; conditions: rats, cited from earlier work
[2] = Busulphan kinetics in mice (alone, after PTU pretreatment, or with high-dose THT); conditions: for AUC / Cmax: male, C57BL/6N, mouse, plasma, ip, 25 mg/kg, mean
Method: (§5) Male C57BL/6N mice (6–8 weeks old) were purchased from Charles River (Cologne, Germany). The mice were allowed to acclimatize to the surroundings for 2 weeks with a 12h dark/12h light cycle and randomized for treatment. Standard laboratory chow and water ad libitum was introduced.
(§6) To study Bu and THT kinetics, Bu (Sigma-Aldrich, Steinheim, Germany) was administered i.p. (25mg/kg or 100μmol/kg) as a 2mM solution in DMSO (Sigma-Aldrich, Stockholm, Sweden) [21]. THT was also prepared as a 2mM solution in DMSO and the dose given was equimolar to the Bu treatment (i.e. 100μmol/kg or 8.8 mg/kg). Upon injection, samples were diluted with physiological NaCl solution to a final DMSO concentration of 10% in the dosing solution. At the appropriate time points (10min, 30min, 1h, 2h, 4h, 6h and 8h), mice (three mice at each time point) were anesthetized using 2% isoflurane and the blood samples were collected by heart puncture. Mice were euthanized by cervical dislocation. Plasma was separated and stored at -20°C.
(§7) PTU (3mg/kg) was dissolved in DMSO and diluted with physiological NaCl solution and then injected into the mice once daily followed by Bu or THT injections on the 4th day. The mice were euthanized and plasma samples prepared as in the previous experiment.
(§8) To detect the effect of high THT concentrations on Bu metabolism, a third group of mice was injected with both Bu (100μmol/kg) and a high dose of THT (17.6mg/kg or 200μmol/kg) and samples prepared as described previously. All experiments including negative controls (mice injected with 10% DMSO in NaCl solution) and mice injected with PTU alone were performed in triplicates.
(§9) To quantify Bu, samples were extracted according to the method reported previously by Hassan et al. [24]. Briefly, 500 μL of plasma were diluted with 500 μL of water. Fifty microliters of the internal standard (1,5-bis(methanesulfonoxy)pentane; 38.5 μM) were added, followed by the addition of 1 mL of sodium iodide (8M, Merck, Darmstadt, Germany) and 400μL of n-heptane (Merck, Darmstadt, Germany). The tubes were placed under magnetic stirring in a water bath (70°C) for 45 min. During the reaction, busulphan and 1,5-bis(methanesulfonoxy)pentane were converted to 1,4-diiodobutane and 1,5-diiodopentane respectively and subsequently extracted with n-heptane [25]. The conversion of busulphan and 1,5-bis(methanesulfonoxy)pentane to 1,4-diiodobutane and 1,5-diiodopentane was over 90% [24]. The organic phase was analyzed by GC-MS [18]. THT was quantified as described previously and the method was validated for use with mouse plasma before measuring both Bu and THT [19, 20].
(§10) Kinetic parameters from in vivo studies were estimated using WinNonLin software (standard edition, version 2.0), while Microsoft Excel and SigmaPlot software (version 12.5, Systat software, Inc.) were utilized for in vitro kinetics.

[3] = in vivo; conditions: male, C57BL/6N, mouse, plasma, ip, 25 mg/kg
Method: as §5, §6, §7, §8, §9, §10

[4] = system: GSTA1 mRNA; assay: Gene expression in patients conditioned with busulphan (gene array); format: in vivo, human; conditions: oral Bu 2mg/kg b.i.d. for 4 days
Method: (§1) FMO3 mRNA expression was studied in twelve patients undergoing HSCT at the Center for Allogeneic Stem Cell Transplantation (CAST), Karolinska University Hospital-Huddinge, Sweden. The study was approved by the ethical committee of Karolinska Institutet (616/03) in accordance with the Helsinki Declaration of 1975 and with informed consent from each patient or their guardian. All patients were treated with oral Bu, administered at a dose of 2mg/kg (8μmol/kg) b.i.d. for 4 days followed by an i.v. infusion of cyclophosphamide (Cy) 60mg/kg/day (230μmol/kg/day) once daily for 2 days before the stem cell infusion.
(§2) Blood samples for mRNA quantification were collected in PAXgene^TM blood RNA tubes (BD, Stockholm, Sweden) prior to the start of Bu treatment and after the last Bu dose.
(§3) RNA was extracted from the mononuclear cells using QuickPreps^TM Total RNA Extraction Kit (GE Life Sciences, Uppsala, Sweden). RNA (1μg) was reverse transcribed to complementary DNA (cDNA) using the TaqMan^TM Kit (Applied Biosystems, Roche, NJ, USA).
(§4) Purified mRNA was subjected to analysis of global gene expression by using NimbleGen microarrays (Roche Diagnostics Scandinavia, Bromma, Sweden). Data were analyzed by Genespring GX (Agilent, CA, USA). Quantile normalization was used on the probe expression data generated using the Robust Multichip Average algorithm.

[5] = Busulphan and THT plasma kinetics in a patient treated concomitantly with voriconazole; format: in vivo, human; conditions: Bu 2mg/kg b.i.d. with concomitant voriconazole
Method: In order to confirm the contribution of FMO3 to human Bu kinetics, blood samples were collected (routinely) from a patient who underwent stem cell transplantation and was conditioned according to the hospital transplantation protocol i.e. high dose of Bu (2mg/kg b.i.d.) for four days followed with two days of cyclophosphamide (60mg/kg). […] Voriconazole was administered, according to the hospital clinical protocol, for the treatment of an acute fungal infection.
Samples were taken for therapeutic drug monitoring (TDM) at several time points after the first, third and fifth doses. Blood was collected into EDTA vacutainer tubes, plasma was separated by centrifugation at 1200 g and stored at -20°C until analysis of Bu and THT [18].

[6] = cited from earlier work
[7] = system: FMO3 mRNA; assay: Gene expression in patients conditioned with busulphan (gene array, qRT-PCR); format: in vivo, human; conditions: oral Bu 2mg/kg b.i.d. for 4 days, normalized to GAPDH
Method: as §1, §2, §3
as §4, with “algorithm. […]” for “algorithm.”

[8] = within 72 hours of administration
[9] = Group 1: mice, Bu 25mg/kg i.p. alone
[10] = Group 2: mice, Bu 25mg/kg i.p. after PTU 3mg/kg i.p. once daily for 3 days

| AUC [2, 9] [µM·h] | AUC [2, 10] [µM·h] | Cmax [2, 9] [µM] | Cmax [2, 10] [µM] | Bu plasma concentrations and Bu exposure (AUC) versus Bu alone ([2]; mice treated with FMO3 inhibitor PTU before Bu administration) | levels of Bu versus Bu alone ([2]; mice, concomitant administration of THT and Bu) | AUC [3] [µM·h] | Cmax [3] [µM] | Bu levels versus same dose of Bu administered alone [5] | Bu clearance versus a patient treated with Bu alone ([5]; P<0.05) | Compound | share of Bu excreted in urine as this metabolite [1, 8] [%] | Bu excreted in the urine as unchanged drug [1] [%] | Bu excreted in the form of its subsequent metabolites [1, 8] | GSTA1 mRNA after Bu conditioning versus before [4] | decrease of Bu clearance ([6]; child with AML, after two days concomitant metronidazole) [%] | daily AUC in excess of the predicted ([6]; child with AML, concomitant metronidazole) [%] | mean Bu trough levels with concomitant metronidazole ([6]; patients undergoing HSCT) | FMO3 mRNA after Bu conditioning versus before [7] |
| --- | --- | --- | --- | --- | --- | --- | --- | --- | --- | --- | --- | --- | --- | --- | --- | --- | --- | --- |
| – | – | – | – | – | – | – | – | – | – | [O-][S+]1CCCC1 [THT 1-oxide, tetrahydrothiophene 1-oxide] | 20 | – | – | – | – | – | – | – |
| 44.3 | 65.3 | 7.47 | 25.5 | significantly (P<0.05, t-test) higher | higher levels | 65.5 | 16.5 | higher than expected | slower | CS(=O)(=O)OCCCCOS(C)(=O)=O [Bu, Busulphan] | – | 2 | more than 70% | significantly up-regulated | 46 | 86 | two-fold higher | significant up-regulation |
| – | – | – | – | – | – | – | – | – | – | O=S1(=O)CCC(O)C1 (stereo not shown) [3-OH-sulfolane, 3-hydroxysulfolane] | 39 | – | – | – | – | – | – | – |
